Assay results published in patent US20250381179A1, “CHROMAN-BASED COMPOUNDS FOR TREATING CANCER” (priority 2024, published 2025).

What was measured:
MCF7 xenograft tumors = MCF7 xenograft tumors in mice, once daily oral administration; assay type: in vivo; settings: once daily oral 30 mg/kg/day (lowest dose level evaluated)
[1] = tested on: tamoxifen-resistant MCF7 xenograft; experiment: Tamoxifen-resistant MCF7 xenograft model; assay type: in vivo, mice; settings: in combination with the CDK4/6 inhibitor palbociclib
CYP2C8 = biological target: T1, CYP2C8 (Homo sapiens, UniProt P10632); experiment: CYP2C8 direct inhibition; assay type: in vitro ADME; settings: highest concentration evaluated (10 μM)
T1 sequence (P10632 1-490): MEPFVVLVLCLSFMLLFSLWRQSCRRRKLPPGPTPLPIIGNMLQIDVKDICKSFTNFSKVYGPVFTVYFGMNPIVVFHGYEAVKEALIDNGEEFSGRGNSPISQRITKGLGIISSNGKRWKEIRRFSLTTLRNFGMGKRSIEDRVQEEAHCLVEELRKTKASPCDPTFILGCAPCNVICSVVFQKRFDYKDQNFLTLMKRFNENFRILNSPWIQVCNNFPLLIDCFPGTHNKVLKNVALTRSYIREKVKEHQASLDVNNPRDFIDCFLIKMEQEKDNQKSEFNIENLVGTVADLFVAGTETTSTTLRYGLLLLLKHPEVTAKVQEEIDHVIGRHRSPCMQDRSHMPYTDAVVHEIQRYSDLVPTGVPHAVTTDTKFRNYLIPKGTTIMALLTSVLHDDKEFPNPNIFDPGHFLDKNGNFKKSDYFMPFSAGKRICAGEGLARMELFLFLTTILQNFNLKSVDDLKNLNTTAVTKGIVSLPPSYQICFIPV

[2] = tested on: ER+/HER2− locally advanced or metastatic breast cancer; experiment: Phase 1 study: anti-tumor activity (RECIST v1.1; ORR, CBR, best objective response); assay type: in vivo, human; settings: for ORR (CR + PR) - n (%): RECIST 1.1, Investigator assessment; for Response - n (%): RECIST 1.1, efficacy evaluable set; for Confirmed Complete Response (cCR) / Confirmed Partial Response (cPR): confirmed by second assessment at least 4 weeks after first
Description: The study employed an open-label, 3+3 design, with the option of adding backfill patients to each cohort cleared and deemed safe. […] Compound (1-g) was administered orally once daily in 28-day cycles. Tumor responses were assessed every 2 cycles using RECIST v1.1 criteria. Therefore, the initial dose of 100 mg QD was chosen to limit the number of patients exposed to lower efficacious dose levels, while adding an additional 2.5-fold safety margin. The study also involves an ongoing dose escalation study where participants receive 100 mg, 200 mg, 300 mg, 400 mg, and 600 mg once daily (QD) dose levels.
Response and progression will be evaluated in this study using RECIST Version 1.1. Lesions are either measurable or non-measurable according to the criteria. The actual number of dose levels to be explored in this study depended on determination of the non-tolerable dose based on DLTs. Other safety data, as well as PK profiles observed during the conduct of the study and any trends for anti-tumor activity were collected. Treatment cycles occurred consecutively. Evaluation of a cohort of at least 3 patients completing 1 cycle of treatment (28 days) is required prior to proceeding to the next dose level. In addition, selected dose levels may be expanded to approximately 20 patients (per dose level).
All efficacy analyses were performed using the Efficacy Evaluable Analysis Set. Objective Response Rate (ORR), defined as the proportion of patients who have measurable disease at baseline with confirmed […] or partial response (PR) (i.e., 2 CRs or PRs at least 4 weeks apart) according to the RECIST Version 1.1 criteria. Clinical Benefit Rate (CBR), defined as the proportion of patients with CR, PR, or stable disease (SD) (where SD is ≥24 weeks) according to the RECIST Version 1.1 criteria. Duration of Response (DOR), defined as the time between first documentation of a response (CR or PR) and first evidence of PD according to RECIST v1.1 or death due to any cause. […] Progression Free Survival (PFS), defined as the time from the first day of study drug administration (Day 1) until disease progression as defined by the RECIST Version 1.1 criteria, or death on study, whichever occurs first. Patients who are alive and free from disease progression were censored at the date of last tumor assessment. For ORR and CBR, estimates and the associated 95% CIs (based on the Clopper-Pearson method), at each dose level were calculated. The absolute and relative difference in ORR and CBR between the two treatment groups was presented. For PFS, Kaplan-Meier curves were generated and the median time to event, and the associated 95% CIs were provided. The hazard ratio and the 95% CIs for these endpoints between the two treatment groups was calculated.
The overall response is evaluated according to the criteria in Table 4.
The objective response rate (ORR) and the clinical benefit rate (CBR) were assessed for the participants. The clinical benefit rate (CBR), as used herein, is defined as confirmed complete response or partial response at any time and stable disease over ≥24 weeks. Evaluable participants need to complete an adequate post-treatment scan. Participants with SD who remain on study <6 months are not included in the denominator.

CYP2C19 = CYP2C19 (Homo sapiens, UniProt P33261)
Sequence of CYP2C19 (P33261 whole entry): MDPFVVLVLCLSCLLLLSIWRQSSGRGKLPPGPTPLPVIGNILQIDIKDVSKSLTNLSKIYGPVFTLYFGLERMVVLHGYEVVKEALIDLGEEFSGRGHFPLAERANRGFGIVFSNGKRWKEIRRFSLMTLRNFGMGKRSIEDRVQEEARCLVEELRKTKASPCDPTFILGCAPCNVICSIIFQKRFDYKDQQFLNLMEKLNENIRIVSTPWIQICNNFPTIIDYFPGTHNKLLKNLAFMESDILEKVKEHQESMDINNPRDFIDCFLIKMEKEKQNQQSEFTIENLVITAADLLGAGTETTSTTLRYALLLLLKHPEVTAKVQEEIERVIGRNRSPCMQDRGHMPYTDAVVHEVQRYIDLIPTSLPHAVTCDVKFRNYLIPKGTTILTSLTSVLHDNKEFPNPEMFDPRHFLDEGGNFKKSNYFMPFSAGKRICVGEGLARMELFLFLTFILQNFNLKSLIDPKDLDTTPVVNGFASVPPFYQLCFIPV

O=C1CC[C@H](N2Cc3cc(N4CCN(CC5CCN(c6ccc([C@@H]7c8ccc(O)cc8OC[C@@H]7c7ccccc7)cc6F)CC5)CC4)ccc3C2=O)C(=O)N1 [compound (1-g), (S)-3-(5-(4-((1-(2-fluoro-4-((3S,4R)-7-hydroxy-3-phenylchroman-4-yl)phenyl)piperidin-4-yl)methyl)piperazin-1-yl)-1-oxoisoindolin-2-yl)piperidine-2,6-dione]
effect on MCF7 xenograft tumors (MCF7 xenograft tumors): achieved tumor regression
anti-tumor activity in combination [1]: enhanced anti-tumor activity was observed
CYP2C8 direct inhibition (CYP2C8): did not directly inhibit
Non-Response - n (%) ([2]; Cohort 1 (100 mg QD), N = 2): 1 (50.0) n (%)
Not Applicable (NA) ([2]; Cohort 1 (100 mg QD), N = 2): 0 n (%)
Not Evaluable (NE) ([2]; Cohort 1 (100 mg QD), N = 2): 0 n (%)
Progressive Disease (PD) ([2]; Cohort 1 (100 mg QD), N = 2): 0 n (%)
Unconfirmed Complete Response (uCR) ([2]; Cohort 1 (100 mg QD), N = 2): 0 n (%)
Unconfirmed Partial Response (uPR) ([2]; Cohort 1 (100 mg QD), N = 2): 0 n (%)
ORR (CR + PR) - n (%) ([2]; Cohort 1 (100 mg QD), N = 2): 1 (50.0) n (%)
Response - n (%) ([2]; Cohort 1 (100 mg QD), N = 2): 1 (50.0) n (%)
Confirmed Complete Response (cCR) ([2]; Cohort 1 (100 mg QD), N = 2): 0 n (%)
Confirmed Partial Response (cPR) ([2]; Cohort 1 (100 mg QD), N = 2): 1 (50.0) n (%)
Non-Response - n (%) ([2]; Cohort 2 (200 mg QD), N = 8): 6 (75.0) n (%)
Not Applicable (NA) ([2]; Cohort 2 (200 mg QD), N = 8): 0 n (%)
Not Evaluable (NE) ([2]; Cohort 2 (200 mg QD), N = 8): 1 (12.5) n (%)
Progressive Disease (PD) ([2]; Cohort 2 (200 mg QD), N = 8): 2 (25.0) n (%)
Unconfirmed Complete Response (uCR) ([2]; Cohort 2 (200 mg QD), N = 8): 0 n (%)
Unconfirmed Partial Response (uPR) ([2]; Cohort 2 (200 mg QD), N = 8): 0 n (%)
ORR (CR + PR) - n (%) ([2]; Cohort 2 (200 mg QD), N = 8): 2 (25.0) n (%)
Response - n (%) ([2]; Cohort 2 (200 mg QD), N = 8): 2 (25.0) n (%)
Confirmed Complete Response (cCR) ([2]; Cohort 2 (200 mg QD), N = 8): 0 n (%)
Confirmed Partial Response (cPR) ([2]; Cohort 2 (200 mg QD), N = 8): 2 (25.0) n (%)
Non-Response - n (%) ([2]; Cohort 3 (300 mg QD), N = 9): 8 (88.9) n (%)
Not Applicable (NA) ([2]; Cohort 3 (300 mg QD), N = 9): 0 n (%)
Not Evaluable (NE) ([2]; Cohort 3 (300 mg QD), N = 9): 0 n (%)
Progressive Disease (PD) ([2]; Cohort 3 (300 mg QD), N = 9): 4 (44.4) n (%)
Unconfirmed Complete Response (uCR) ([2]; Cohort 3 (300 mg QD), N = 9): 0 n (%)
Unconfirmed Partial Response (uPR) ([2]; Cohort 3 (300 mg QD), N = 9): 0 n (%)
ORR (CR + PR) - n (%) ([2]; Cohort 3 (300 mg QD), N = 9): 1 (11.1) n (%)
Response - n (%) ([2]; Cohort 3 (300 mg QD), N = 9): 1 (11.1) n (%)
Confirmed Complete Response (cCR) ([2]; Cohort 3 (300 mg QD), N = 9): 0 n (%)
Confirmed Partial Response (cPR) ([2]; Cohort 3 (300 mg QD), N = 9): 1 (11.1) n (%)
Non-Response - n (%) ([2]; Cohort 4 (400 mg QD), N = 4): 4 (100) n (%)
Not Applicable (NA) ([2]; Cohort 4 (400 mg QD), N = 4): 0 n (%)
Not Evaluable (NE) ([2]; Cohort 4 (400 mg QD), N = 4): 0 n (%)
Progressive Disease (PD) ([2]; Cohort 4 (400 mg QD), N = 4): 2 (50.0) n (%)
Unconfirmed Complete Response (uCR) ([2]; Cohort 4 (400 mg QD), N = 4): 0 n (%)
Unconfirmed Partial Response (uPR) ([2]; Cohort 4 (400 mg QD), N = 4): 0 n (%)
ORR (CR + PR) - n (%) ([2]; Cohort 4 (400 mg QD), N = 4): 0 n (%)
Response - n (%) ([2]; Cohort 4 (400 mg QD), N = 4): 0 n (%)
Confirmed Complete Response (cCR) ([2]; Cohort 4 (400 mg QD), N = 4): 0 n (%)
Confirmed Partial Response (cPR) ([2]; Cohort 4 (400 mg QD), N = 4): 0 n (%)
Non-Response - n (%) ([2]; Cohort 5 (600 mg QD), N = 3): 3 (100) n (%)
Not Applicable (NA) ([2]; Cohort 5 (600 mg QD), N = 3): 0 n (%)
Not Evaluable (NE) ([2]; Cohort 5 (600 mg QD), N = 3): 0 n (%)
Progressive Disease (PD) ([2]; Cohort 5 (600 mg QD), N = 3): 0 n (%)
Unconfirmed Complete Response (uCR) ([2]; Cohort 5 (600 mg QD), N = 3): 0 n (%)
Unconfirmed Partial Response (uPR) ([2]; Cohort 5 (600 mg QD), N = 3): 0 n (%)
Response - n (%) ([2]; Cohort 5 (600 mg QD), N = 3): 0 n (%)
Confirmed Complete Response (cCR) ([2]; Cohort 5 (600 mg QD), N = 3): 0 n (%)
Confirmed Partial Response (cPR) ([2]; Cohort 5 (600 mg QD), N = 3): 0 n (%)
Non-Response - n (%) ([2]; Overall, N = 26): 22 (84.6) n (%)
Not Applicable (NA) ([2]; Overall, N = 26): 0 n (%)
Not Evaluable (NE) ([2]; Overall, N = 26): 1 (3.8) n (%)
Progressive Disease (PD) ([2]; Overall, N = 26): 8 (30.8) n (%)
Unconfirmed Complete Response (uCR) ([2]; Overall, N = 26): 0 n (%)
Unconfirmed Partial Response (uPR) ([2]; Overall, N = 26): 0 n (%)
ORR (CR + PR) - n (%) ([2]; Overall, N = 26): 4 (15.4) n (%)
Response - n (%) ([2]; Overall, N = 26): 4 (15.4) n (%)
Confirmed Complete Response (cCR) ([2]; Overall, N = 26): 0 n (%)
Confirmed Partial Response (cPR) ([2]; Overall, N = 26): 4 (15.4) n (%)
CYP2C19 time-dependent inhibition (CYP2C19): without showing time-dependent inhibition
